The values that follow come from patent US20250206732A1, “COMPOUNDS AND METHODS FOR THE TARGETED DEGRADATION OF KRAS” (Arvinas Operations, Inc., priority 2022, published 2025).

This assay addresses T1, AsPC-1 HiBiT-KRASG12D (Homo sapiens, UniProt P01116, G12D).
T1 construct: insert the HiBiT tag onto the N-terminus of one or more of the endogenous KRAS alleles; endogenous in cells; host or cells: AsPC-1 (ATCC CRL-1682), CRISPR-Cas9 knock-in clone, one tagged allele
Description: HiBiT degradation assay (G12D), AsPC-1 HiBiT-KRASG12D cells. The assay is classed as cell-based. To be noted: 24 hours treatment; for Dmax: ASPC1, AsPC-1 HiBiT-KRASG12D cells, maximum degradation observed; for DC50: AsPC-1 HiBiT-KRASG12D cells, HiBiT luminescence. The essentials:
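In this degradation format, an engineered AsPC-1 clone with HiBiT fused to the KRAS N-terminus is exposed to compounds for 24 hours, after which remaining tagged protein is quantified by lytic HiBiT luminescence.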

T1 sequence (P01116 1-188 isoform P01116-2 G12D): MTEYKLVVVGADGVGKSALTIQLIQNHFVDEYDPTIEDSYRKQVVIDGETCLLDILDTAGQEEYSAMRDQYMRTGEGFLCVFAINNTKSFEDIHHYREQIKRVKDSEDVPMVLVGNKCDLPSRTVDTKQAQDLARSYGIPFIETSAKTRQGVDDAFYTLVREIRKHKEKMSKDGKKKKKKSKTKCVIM

For `C#Cc1c(F)ccc2cc(O)cc(-c3ncc4c(N5CC6CCC(C5)N6)nc(OCCN5CCC(F)(CN6CCN(c7cc([C@@H](C(=O)N8C[C@H](O)C[C@H]8C(=O)N[C@@H](C)c8ccc(-c9ccnn9C)cc8)C(C)C)on7)CC6)CC5)nc4c3F)c12` [Compound 171, (2S,4R)-1-[(2S)-2-(3-{4-[(1-{2-[(4-{3,8-diazabicyclo[3.2.1]octan-3-yl}-7-(8-ethynyl-7-fluoro-3-hydroxynaphthalen-1-yl)-8-fluoropyrido[4,3-d]pyrimidin-2-yl)oxy]ethyl}-4-fluoropiperidin-4-yl)methyl]piperazin-1-yl}-1,2-oxazol-5-yl)-3-methylbutanoyl]-4-hydroxy-N-[(1S)-1-[4-(1-methyl-1H-pyrazol-5-yl)phenyl]ethyl]pyrrolidine-2-carboxamide], the Dmax lay within 20 to 60% and the DC50 lay within 1000 to 3000 nM. For `C#Cc1c(F)ccc2cc(O)cc(-c3ncc4c(N5CC6CCC(C5)N6)nc(OCCN5CCC(F)(CN6CCN(c7cc([C@H](C(=O)N8C[C@H](O)C[C@H]8C(=O)N[C@@H](C)c8ccc(-c9scnc9C)cc8)C(C)C)on7)CC6)CC5)nc4c3F)c12` [Compound 172, (2S,4R)-1-[(2R)-2-(3-{4-[(1-{2-[(4-{3,8-diazabicyclo[3.2.1]octan-3-yl}-7-(8-ethynyl-7-fluoro-3-hydroxynaphthalen-1-yl)-8-fluoropyrido[4,3-d]pyrimidin-2-yl)oxy]ethyl}-4-fluoropiperidin-4-yl)methyl]piperazin-1-yl}-1,2-oxazol-5-yl)-3-methylbutanoyl]-4-hydroxy-N-[(1S)-1-[4-(4-methyl-1,3-thiazol-5-yl)phenyl]ethyl]pyrrolidine-2-carboxamide] the same measures were 80 to 100% and less than 600 nM.

As for `C#Cc1c(F)ccc2cc(O)cc(-c3ncc4c(N5CC6CCC(C5)N6)nc(OCCN5CCC(CCOc6cc([C@H](C(=O)N7C[C@H](O)C[C@H]7C(=O)N[C@@H](C)c7ccc(-c8scnc8C)cc7)C(C)C)on6)CC5)nc4c3F)c12` [Compound 173, (2S,4R)-1-[(2R)-2-{3-[2-(1-{2-[(4-{3,8-diazabicyclo[3.2.1]octan-3-yl}-7-(8-ethynyl-7-fluoro-3-hydroxynaphthalen-1-yl)-8-fluoropyrido[4,3-d]pyrimidin-2-yl)oxy]ethyl}piperidin-4-yl)ethoxy]-1,2-oxazol-5-yl}-3-methylbutanoyl]-4-hydroxy-N-[(1S)-1-[4-(4-methyl-1,3-thiazol-5-yl)phenyl]ethyl]pyrrolidine-2-carboxamide], the greatest degradation seen (Dmax) was in the range of 80 to 100% and the DC50 is less than 600 nM. The matching figures for `C#Cc1c(F)ccc2cc(O)cc(-c3ncc4c(N5CC6CCC(C5)N6)nc(OCCN5CCC(CCOc6cc([C@@H](C(=O)N7C[C@H](O)C[C@H]7C(=O)N[C@@H](C)c7ccc(-c8scnc8C)cc7)C(C)C)on6)CC5)nc4c3F)c12` [Compound 174, (2S,4R)-1-[(2S)-2-{3-[2-(1-{2-[(4-{3,8-diazabicyclo[3.2.1]octan-3-yl}-7-(8-ethynyl-7-fluoro-3-hydroxynaphthalen-1-yl)-8-fluoropyrido[4,3-d]pyrimidin-2-yl)oxy]ethyl}piperidin-4-yl)ethoxy]-1,2-oxazol-5-yl}-3-methylbutanoyl]-4-hydroxy-N-[(1S)-1-[4-(4-methyl-1,3-thiazol-5-yl)phenyl]ethyl] pyrrolidine-2-carboxamide]: 80 to 100% and less than 600 nM. The matching figures for `C#Cc1c(F)ccc2cc(O)cc(-c3ncc4c(N5CC6CCC(C5)N6)nc(OCCN5CCC(C(C)(C)N6CCN(c7cc([C@H](C(=O)N8C[C@H](O)C[C@H]8C(=O)N[C@@H](C)c8ccc(-c9scnc9C)cc8)C(C)C)on7)CC6)CC5)nc4c3F)c12` [Compound 175, (2S,4R)-1-[(2R)-2-(3-{4-[2-(1-{2-[(4-{3,8-diazabicyclo[3.2.1]octan-3-yl}-7-(8-ethynyl-7-fluoro-3-hydroxynaphthalen-1-yl)-8-fluoropyrido[4,3-d]pyrimidin-2-yl)oxy]ethyl}piperidin-4-yl)propan-2-yl]piperazin-1-yl}-1,2-oxazol-5-yl)-3-methylbutanoyl]-4-hydroxy-N-[(1S)-1-[4-(4-methyl-1,3-thiazol-5-yl)phenyl]ethyl] pyrrolidine-2-carboxamide]: 80 to 100% and less than 600 nM. `C#Cc1c(F)ccc2cc(O)cc(-c3ncc4c(N5CC6CCC(C5)N6)nc(OCCN5CCC(C6CCN(c7cc([C@H](C(=O)N8C[C@H](O)C[C@H]8C(=O)N[C@@H](C)c8ccc(-c9scnc9C)cc8)C(C)C)on7)CC6)CC5)nc4c3F)c12` [Compound 176, (2S,4R)-1-[(2R)-2-[3-(1′-{2-[(4-{3,8-diazabicyclo[3.2.1]octan-3-yl}-7-(8-ethynyl-7-fluoro-3-hydroxynaphthalen-1-yl)-8-fluoropyrido[4,3-d]pyrimidin-2-yl)oxy]ethyl}-[4,4′-bipiperidin]-1-yl)-1,2-oxazol-5-yl]-3-methylbutanoyl]-4-hydroxy-N-] returned a Dmax of 80 to 100% and a DC50 of less than 600 nM. As to `C#Cc1c(F)ccc2cc(O)cc(-c3ncc4c(N5CC6CCC(C5)N6)nc(OCCN5CCC(C6CCN(c7cc([C@@H](C(=O)N8C[C@H](O)C[C@H]8C(=O)N[C@@H](C)c8ccc(-c9scnc9C)cc8)C(C)C)on7)CC6)CC5)nc4c3F)c12` [Compound 177, (2S,4R)-1-[(2S)-2-[3-(1′-{2-[(4-{3,8-diazabicyclo[3.2.1]octan-3-yl}-7-(8-ethynyl-7-fluoro-3-hydroxynaphthalen-1-yl)-8-fluoropyrido[4,3-d]pyrimidin-2-yl)oxy]ethyl}-[4,4′-bipiperidin]-1-yl)-1,2-oxazol-5-yl]-3-methylbutanoyl]-4-hydroxy-N-[(1S)-1-[4-(4-methyl-1,3-thiazol-5-yl)phenyl]ethyl]pyrrolidine-2-carboxamide], the Dmax lay within 60 to 80% and the DC50 was less than 600 nM. For `C#Cc1c(F)ccc2cc(O)cc(-c3ncc4c(N5CC6CCC(C5)N6)nc(OCCN5CCC(CN6CCN(c7cnc(C(=O)N[C@H](C(=O)N8C[C@H](O)C[C@H]8C(=O)N[C@@H](C)c8ccc(-c9scnc9C)cc8)C(C)(C)C)cn7)CC6)CC5)nc4c3F)c12` [Compound 179, 5-{4-[(1-{2-[(4-{3,8-diazabicyclo[3.2.1]octan-3-yl}-7-(8-ethynyl-7-fluoro-3-hydroxynaphthalen-1-yl)-8-fluoropyrido[4,3-d]pyrimidin-2-yl)oxy]ethyl}piperidin-4-yl)methyl]piperazin-1-yl}-N-[(2S)-1-[(2S,4R)-4-hydroxy-2-{[(1S)-1-[4-(4-methyl-1,3-thiazol-5-yl)phenyl]ethyl]carbamoyl}pyrrolidin-1-yl]-3,3-dimethyl-1-oxobutan-2-yl]pyrazine-2-carboxamide] the same measures were 80 to 100% and less than 600 nM.

Regarding `CCc1cccc2cc(O)cc(-c3ncc4c(N5CC6CCC(C5)N6)nc(N5CC(N6CCC(CC7CN(c8cc([C@@H](C(=O)N9C[C@H](O)C[C@H]9C(=O)N[C@@H](C)c9ccc(-c%10scnc%10C)cc9)C(C)C)on8)C7)CC6)C5)nc4c3F)c12` [Compound 180], the DC50 was more than 3000 nM. The same measure, in the same setting: to `CCc1cccc2cc(O)cc(-c3ncc4c(N5CC6CCC(C5)N6)nc(OC[C@H]5CN(CC6CN(c7cc([C@@H](C(=O)N8C[C@H](O)C[C@H]8C(=O)N[C@@H](C)c8ccc(-c9scnc9C)cc8)C(C)C)on7)C6)CCN5C)nc4c3F)c12` [Compound 181, (2S,4R)-1-[(2S)-2-[3-(3-{[(3R)-3-{[(4-{3,8-diazabicyclo[3.2.1]octan-3-yl}-7-(8-ethyl-3-hydroxynaphthalen-1-yl)-8-fluoropyrido[4,3-d]pyrimidin-2-yl)oxy]methyl}-4-methylpiperazin-1-yl]methyl}azetidin-1-yl)-1,2-oxazol-5-yl]-3-methylbutanoyl]-4-hydroxy-N-[(1S)-1-[4-(4-methyl-1,3-thiazol-5-yl)phenyl]ethyl]pyrrolidine-2-carboxamide] belongs more than 3000 nM. Regarding `CCc1cccc2cc(O)cc(-c3ncc4c(N5CC6CCC(C5)N6)nc(N5CC(CN6CCC(CC7CN(c8cc([C@H](C(=O)N9C[C@H](O)C[C@H]9C(=O)N[C@@H](C)c9ccc(-c%10scnc%10C)cc9)C(C)C)on8)C7)CC6)C5)nc4c3F)c12` [Compound 182, (2S,4R)-1-[(2R)-2-(3-{3-[(1-{[1-(4-{3,8-diazabicyclo[3.2.1]octan-3-yl}-7-(8-ethyl-3-hydroxynaphthalen-1-yl)-8-fluoropyrido[4,3-d]pyrimidin-2-yl)azetidin-3-yl]methyl}piperidin-4-yl)methyl]azetidin-1-yl}-1,2-oxazol-5-yl)-3-methylbutanoyl]-4-hydroxy-N-[(1S)-1-[4-(4-methyl-1,3-thiazol-5-yl)phenyl]ethyl]pyrrolidine-2-carboxamide], the Dmax was in the range of 20 to 60% and the DC50 is less than 600 nM. The matching figures for `C#Cc1c(F)ccc2cc(O)cc(-c3ncc4c(N5CC6CCC(C5)N6)nc(OCCN5CC[C@H]6CN(c7cc([C@H](C(=O)N8C[C@H](O)C[C@H]8C(=O)N[C@@H](C)c8ccc(-c9scnc9C)cc8)C(C)C)on7)C[C@H]6C5)nc4c3F)c12` [Compound 183, (2S,4R)-1-[(2R)-2-{3-[(3aR,7aR)-5-{2-[(4-{3,8-diazabicyclo[3.2.1]octan-3-yl}-7-(8-ethynyl-7-fluoro-3-hydroxynaphthalen-1-yl)-8-fluoropyrido[4,3-d]pyrimidin-2-yl)oxy]ethyl}-octahydro-1H-pyrrolo[3,4-c]pyridin-2-yl]-1,2-oxazol-5-yl}-3-methylbutanoyl]-4-hydroxy-N-[(1S)-1-[4-(4-methyl-1,3-thiazol-5-yl)phenyl]ethyl]pyrrolidine-2-carboxamide]: 80 to 100% and less than 600 nM.

`C#Cc1c(F)ccc2cc(O)cc(-c3ncc4c(N5CC6CCC(C5)N6)nc(OCCN5CCC(CCC6CN(c7cc([C@H](C(=O)N8C[C@H](O)C[C@H]8C(=O)N[C@@H](C)c8ccc(-c9scnc9C)cc8)C(C)C)on7)C6)CC5)nc4c3F)c12` [Compound 184] returned a Dmax of 80 to 100% and a DC50 of less than 600 nM.
